Values of other authors, collected in patent publication US12403100B2, “Natural combination products and methods for regulation of total blood cholesterol” (priority 2018, dated 2025).

Experiments:
[1] = biological target: T1, pancreatic cholesterol esterase (Sus scrofa, UniProt A0A286ZKB1); details: depending on their concentration
T1 sequence (A0A286ZKB1 1-682): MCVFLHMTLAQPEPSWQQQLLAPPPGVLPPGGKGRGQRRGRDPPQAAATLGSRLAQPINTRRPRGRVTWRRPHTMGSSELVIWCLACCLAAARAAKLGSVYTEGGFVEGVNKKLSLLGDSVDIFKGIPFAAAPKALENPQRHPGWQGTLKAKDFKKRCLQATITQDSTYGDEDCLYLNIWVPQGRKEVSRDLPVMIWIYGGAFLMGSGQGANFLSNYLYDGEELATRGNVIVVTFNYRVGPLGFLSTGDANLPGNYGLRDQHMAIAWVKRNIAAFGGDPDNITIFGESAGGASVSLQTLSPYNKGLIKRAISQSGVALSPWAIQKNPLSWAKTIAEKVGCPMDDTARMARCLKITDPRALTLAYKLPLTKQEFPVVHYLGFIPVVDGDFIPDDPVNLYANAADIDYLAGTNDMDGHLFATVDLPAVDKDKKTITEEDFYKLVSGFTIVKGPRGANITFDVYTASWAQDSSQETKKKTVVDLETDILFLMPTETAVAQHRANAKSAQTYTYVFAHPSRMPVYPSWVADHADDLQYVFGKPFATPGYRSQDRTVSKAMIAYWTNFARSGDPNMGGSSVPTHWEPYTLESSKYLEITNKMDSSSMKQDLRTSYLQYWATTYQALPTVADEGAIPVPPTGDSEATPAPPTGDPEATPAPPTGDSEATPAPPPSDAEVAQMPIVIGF

lipoprotein mycelia = details: concentration of 0.2 mg/mL
[2] = in vivo
[3] = in vivo; remark: listed apart in the source
CYP 3A4 = CYP 3A4 (Homo sapiens, UniProt P08684)
[4] = not given; remark: listed apart in the source
[5] = aqueous-acidic medium
[6] = not given; remark: listed apart in the source
[7] = system: hyperlipidemic patients with hypertension; details: intake of 20 mg of lovastatin, same time (8 weeks)
[8] = Reynoso et al. 2002
CYP 2C9 = CYP 2C9 (Homo sapiens, UniProt P11712)
Chain of CYP 2C9 (P11712 whole entry): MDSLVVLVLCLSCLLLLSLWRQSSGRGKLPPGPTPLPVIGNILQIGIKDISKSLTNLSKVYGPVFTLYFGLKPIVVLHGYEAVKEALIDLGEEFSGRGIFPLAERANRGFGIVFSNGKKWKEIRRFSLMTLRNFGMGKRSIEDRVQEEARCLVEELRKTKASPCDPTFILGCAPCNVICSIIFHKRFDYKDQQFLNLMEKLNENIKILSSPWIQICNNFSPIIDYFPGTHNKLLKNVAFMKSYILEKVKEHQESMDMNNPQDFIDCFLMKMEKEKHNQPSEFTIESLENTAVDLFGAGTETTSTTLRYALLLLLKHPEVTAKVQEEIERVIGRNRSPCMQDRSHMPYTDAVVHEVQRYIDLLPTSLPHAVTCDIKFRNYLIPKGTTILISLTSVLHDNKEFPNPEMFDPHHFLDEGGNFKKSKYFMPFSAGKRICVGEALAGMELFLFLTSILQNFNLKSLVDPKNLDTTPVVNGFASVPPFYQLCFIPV

Chain of CYP 3A4 (P08684 whole entry): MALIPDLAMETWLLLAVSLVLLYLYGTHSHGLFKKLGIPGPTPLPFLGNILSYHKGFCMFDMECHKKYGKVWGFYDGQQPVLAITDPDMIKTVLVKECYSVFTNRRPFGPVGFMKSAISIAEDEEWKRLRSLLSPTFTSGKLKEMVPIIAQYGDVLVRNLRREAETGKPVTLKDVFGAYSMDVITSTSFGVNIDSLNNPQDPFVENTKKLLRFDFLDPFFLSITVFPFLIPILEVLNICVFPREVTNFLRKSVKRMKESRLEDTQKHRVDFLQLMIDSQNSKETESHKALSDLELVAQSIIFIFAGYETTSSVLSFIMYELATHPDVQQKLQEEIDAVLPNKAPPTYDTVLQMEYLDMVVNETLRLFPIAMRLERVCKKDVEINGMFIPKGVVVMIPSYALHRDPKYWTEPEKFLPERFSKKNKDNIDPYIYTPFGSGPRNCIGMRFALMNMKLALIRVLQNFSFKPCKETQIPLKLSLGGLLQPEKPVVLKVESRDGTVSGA

catechin
inhibition of pancreatic cholesterol ester [1]: significantly inhibit
reduction of the formation of lipoprotein mycelia (lipoprotein mycelia): 11.88±0.75%

CC[C@H](C)C(=O)O[C@H]1C[C@H](O)C=C2C=C[C@H](C)[C@H](CC[C@@H](O)C[C@@H](O)CC(=O)O)[C@H]21 [Pravastatin]
lipophilic or hydrophilic: hydrophilic
Passing through the blood-brain barrier [2]: No
Absorption (%) [3]: 35%
Plasma half-life [3]: 0.9 to 1.6 h
Renal excretion (%) [3]: 60%
Binding to Plasma proteins (%) (plasma proteins): 40-50%
Metabolism by CYP450 (CYP450): No
metabolized by CYP 3A4 (CYP 3A4): not metabolized

CC[C@H](C)C(=O)O[C@H]1C[C@@H](C)C=C2C=C[C@H](C)[C@H](CC[C@@H]3C[C@@H](O)CC(=O)O3)[C@H]21 [Lovastatin]
lipophilic or hydrophilic: lipophilic
remaining share of the maximal concentration ([4]; after about 24 hours): 10%
absorbed in the gastrointestinal tract ([4]; from the taken dose): about 30%
passage through the placental barrier ([4]; in vivo): passes through the placental barrier
share converted to beta hydroxyl acid ([4]; in vivo): about 30%
time to maximal hypolipidemic effect ([4]; in vivo): 4-6 weeks
time to overt hypolipidemic effect ([4]; in vivo): 2 weeks
time until maximal concentration is reached ([4]; in vivo): about 2 hours
eliminated in excrement ([4]; taken orally): 83%
eliminated in the urine ([4]; taken orally): 10%
energy released by the reverse process (hydrolysis) [5]: 2.42 kcal/mol
solubility in fat [6]: dissolves more easily in fat
solubility in water [6]: difficult to dissolve in water
reduction in cholesterol [7]: 19%
Absorption (%) [3]: 31%
Plasma half-life [3]: 2 to 4 h
Renal excretion (%) [3]: 30%
Binding to Plasma proteins (%) (plasma proteins): 95%
bound to plasma proteins (plasma proteins; lovastatin and its metabolites): > 95%
absorbed from the digestive tract [8]: ~30%

CC(C)c1nc(N(C)S(C)(=O)=O)nc(-c2ccc(F)cc2)c1/C=C/[C@@H](O)C[C@@H](O)CC(=O)O [rosuvastatin]
lipophilic or hydrophilic: hydrophilic
metabolized by CYP 2C9 (CYP 2C9): metabolized
metabolized by CYP 3A4 (CYP 3A4): not metabolized

CCC(C)(C)C(=O)O[C@H]1C[C@@H](C)C=C2C=C[C@H](C)[C@H](CC[C@@H]3C[C@@H](O)CC(=O)O3)[C@H]21 [Simvastatin]
Plasma half-life [3]: 1.3 to 2.4 h

CC[C@H](C)C(=O)O[C@H]1C[C@@H](C)C=C2C=C[C@H](C)[C@H](CC[C@@H](O)C[C@@H](O)CC(=O)O)[C@H]21 [Mevinolinic acid]
energy required for lactonization of mevinolinic acid in lovastatin [5]: 4.93 kcal/mol
solubility in fat [6]: with more difficultly in fat
solubility in water [6]: dissolves easily in water

CC(C)n1c(/C=C/C(O)CC(O)CC(=O)O)c(-c2ccc(F)cc2)c2ccccc21 (centres unmarked) [Fluvastatin]
lipophilic or hydrophilic: lipophilic
Passing through the blood-brain barrier [2]: No
metabolized by CYP 2C9 (CYP 2C9): metabolized
Plasma half-life [3]: 1.2 h
Metabolism by CYP450 (CYP450): Yes

O=C(O)c1cc(O)c(O)c(O)c1 [gallic acid]
inhibition of pancreatic cholesterol ester [1]: significantly inhibit
reduction of the formation of lipoprotein mycelia (lipoprotein mycelia): 27.26±2.17%
